Assay [1] relates to serine hydrolases of the mouse brain proteome (MAGL, DAGL, FAAH, ABHD6, ABHD12). The experiment in a line: Competitive multiplex ABPP in mouse brain proteome. To be noted: 1 μM probe. It is filed as biochemical. As for the experimental part: (§1) Activity‐based protein profiling (ABPP)[49] was used to determine the selectivity of the reversible probes (9, 10) versus a broad range of other serine hydrolases, including the relevant ECS off‐targets DAGL, FAAH, ABHD6, and ABHD12.[45, 49, 50, 51] The ABPP assay was studied in the mouse brain proteome (MBP) at 1 μM concentration as mouse brain homogenate is the most relevant model system for studying ECS enzymes.[45, 49, 50, 51] […] The irreversible probes 11 and 12 could be used to visualize MAGL by in‐gel SDS‐PAGE fluorescence of MBP samples and, thereby, directly showing the specificity of 11 and 12 towards the two MAGL splicing variants present in MBP over a broad range of concentrations. Starting at 1 nM probe concentration, MAGL was detected and only at elevated concentrations greater than 1 μM, minor off‐target protein labeling at approx. 80 kDa started to appear (Figure 3 B). In addition to testing in mouse brain lysates, we also determined the binding of MAGL probes 9–12 towards a panel of 50 off‐targets via a competitive radioligand binding screen to detect interference with potential safety‐related off‐targets (Figure 3 C).
(§2) Mouse brain sample preparation. […] Protein concentration was determined with Bradford Assay, and samples were diluted to a final concentration of 2.0 mg/mL. […]

Assay [2] concerns the target T1, MAGL splicing variants in mouse brain proteome (Mus musculus, UniProt O35678).
T1 sequence (O35678 1-303): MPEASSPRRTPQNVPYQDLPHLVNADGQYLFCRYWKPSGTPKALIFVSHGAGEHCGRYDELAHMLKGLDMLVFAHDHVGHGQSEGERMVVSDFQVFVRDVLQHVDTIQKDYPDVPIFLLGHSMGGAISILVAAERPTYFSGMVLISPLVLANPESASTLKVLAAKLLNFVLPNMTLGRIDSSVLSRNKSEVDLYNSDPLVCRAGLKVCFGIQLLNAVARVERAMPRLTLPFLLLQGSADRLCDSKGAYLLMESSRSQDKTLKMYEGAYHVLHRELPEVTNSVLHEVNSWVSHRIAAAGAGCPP
The experiment in a line: In-gel SDS-PAGE fluorescence labeling of mouse brain proteome with irreversible probes. It is filed as biochemical. As to the method: as §1, §2

A value given as a limit tells only on which side of the number the result lay.

Take `CN(C)c1ccc2c(c1)[Si](C)(C)c1cc(N(C)C)ccc1C21OC(=O)c2ccc(C(=O)NCCCCCOc3ccccc3CC3CC4(C3)CN(C(=O)N3CC5(COC(=O)N5)C3)C4)cc21` (stereo not drawn) [Compound 10]: the “Blocking of serine hydrolase fluorescence signal (selectivity)” value in assay [1] was “Complete blocking of the fluorescence signal was exclusively observed for MAGL”. Consider `CN(C)c1ccc2c(c1)[Si](C)(C)c1cc(N(C)C)ccc1C21OC(=O)c2ccc(C(=O)NCCCCCOc3ccccc3CC3CC4(C3)CN(C(=O)OC(C(F)(F)F)C(F)(F)F)C4)cc21` (stereo not drawn) [Compound 12], for which, in assay [2], the “Probe concentration at which minor off-target protein labeling (approx. 80 kDa) appears” value is reported as “greater than 1 μM” and the “Probe concentration from which MAGL was detected” value is given as at least 1 nM.

The record behind these values is paper PMC11878344 (Angewandte Chemie (International Ed. in English), 2025).
